The source made the active and inactive calls.
Tests used:
[1] = biological target: FAD-linked sulfhydryl oxidase ALR (Homo sapiens, UniProt P55789); experiment: ALR-catalysed DTT oxidation blockers – biochemical, H2O2 detection, luminescence, cherry-pick, dose response (AID 493248)
[2] = Luminescence Cell-Based Dose Response HTS to Identify Activators of Luciferase Translation or Activity in H4 […] Cells. [Related pubchem assays: 1829 (Project Summary), 1814 (Primary HTS)]; type: functional
[3] = biological target: T1, Corticotropin-releasing factor receptor 2/Corticotropin-releasing factor-binding protein (Homo sapiens, UniProt P24387+Q13324); experiment: activators of CRF receptor 2 with binding protein – uHTS hits, confirmation (AID 602473); type: functional; conditions: read-out: EC50_Mean
T1 sequence (Q13324 whole entry): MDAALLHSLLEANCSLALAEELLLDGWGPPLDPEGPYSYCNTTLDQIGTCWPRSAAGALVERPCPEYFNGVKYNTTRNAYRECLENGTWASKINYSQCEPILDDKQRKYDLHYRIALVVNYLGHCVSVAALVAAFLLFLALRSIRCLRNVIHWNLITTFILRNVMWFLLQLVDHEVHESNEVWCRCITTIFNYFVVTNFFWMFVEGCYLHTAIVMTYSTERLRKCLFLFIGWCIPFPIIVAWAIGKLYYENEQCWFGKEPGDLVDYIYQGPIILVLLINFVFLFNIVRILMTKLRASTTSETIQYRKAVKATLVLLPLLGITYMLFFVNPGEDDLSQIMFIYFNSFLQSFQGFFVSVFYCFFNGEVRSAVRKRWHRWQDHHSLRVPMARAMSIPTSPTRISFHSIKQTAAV
T1 sequence (P24387 whole entry): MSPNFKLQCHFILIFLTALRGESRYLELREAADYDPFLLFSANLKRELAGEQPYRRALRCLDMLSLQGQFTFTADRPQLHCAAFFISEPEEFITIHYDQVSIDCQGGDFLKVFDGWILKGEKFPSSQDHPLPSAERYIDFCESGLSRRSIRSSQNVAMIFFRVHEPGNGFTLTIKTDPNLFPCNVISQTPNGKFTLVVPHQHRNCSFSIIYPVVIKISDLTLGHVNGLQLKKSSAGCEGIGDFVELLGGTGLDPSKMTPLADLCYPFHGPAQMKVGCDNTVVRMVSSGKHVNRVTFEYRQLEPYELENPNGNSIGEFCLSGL

[4] = biological target: T1, Corticotropin-releasing factor receptor 2/Corticotropin-releasing factor-binding protein; experiment: Dose Response confirmation of uHTS hits for small molecule antagonists of the CRF-binding protein and CRF-R2 receptor complex.; type: functional; conditions: read-out: IC50_Mean
Genome polyprotein = Genome polyprotein (dengue virus type 2, UniProt P29990); experiment: flavivirus cap methylation enzyme inhibition – biochemical, confirmation dose response, primary screen (AID 588689); type: functional
Genome polyprotein, sequence (P29990 2492-3391 limits assumed): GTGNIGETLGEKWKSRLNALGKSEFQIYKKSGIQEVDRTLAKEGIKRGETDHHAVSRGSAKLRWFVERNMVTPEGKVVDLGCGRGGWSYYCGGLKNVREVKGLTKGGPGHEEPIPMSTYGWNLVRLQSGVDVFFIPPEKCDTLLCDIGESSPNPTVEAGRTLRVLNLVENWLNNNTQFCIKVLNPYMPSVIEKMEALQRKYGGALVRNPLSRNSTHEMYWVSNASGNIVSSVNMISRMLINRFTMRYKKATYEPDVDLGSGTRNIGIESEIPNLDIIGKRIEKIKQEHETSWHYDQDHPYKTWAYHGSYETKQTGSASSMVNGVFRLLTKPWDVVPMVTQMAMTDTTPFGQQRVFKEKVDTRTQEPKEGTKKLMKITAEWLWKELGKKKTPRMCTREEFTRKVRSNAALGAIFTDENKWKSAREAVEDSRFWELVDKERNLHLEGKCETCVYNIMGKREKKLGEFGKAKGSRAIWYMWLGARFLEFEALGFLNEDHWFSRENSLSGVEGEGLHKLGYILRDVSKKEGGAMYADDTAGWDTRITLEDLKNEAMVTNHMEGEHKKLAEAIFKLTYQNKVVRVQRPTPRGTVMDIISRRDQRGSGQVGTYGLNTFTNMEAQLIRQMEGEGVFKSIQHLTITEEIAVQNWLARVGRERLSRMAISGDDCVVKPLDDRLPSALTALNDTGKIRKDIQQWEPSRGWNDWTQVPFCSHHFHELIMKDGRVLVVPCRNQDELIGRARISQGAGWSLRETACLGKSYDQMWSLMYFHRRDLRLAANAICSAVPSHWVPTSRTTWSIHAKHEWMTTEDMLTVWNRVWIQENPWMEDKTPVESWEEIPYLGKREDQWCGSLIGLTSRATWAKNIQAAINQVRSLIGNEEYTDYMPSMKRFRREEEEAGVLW

Large T antigen = Large T antigen (Simian virus 40, UniProt P03070); type: functional, Betapolyomavirus macacae;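 note: Confirmatory-stage PubChem screen for compounds that inhibit SV40 T antigen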
Large T antigen, sequence (P03070 whole entry): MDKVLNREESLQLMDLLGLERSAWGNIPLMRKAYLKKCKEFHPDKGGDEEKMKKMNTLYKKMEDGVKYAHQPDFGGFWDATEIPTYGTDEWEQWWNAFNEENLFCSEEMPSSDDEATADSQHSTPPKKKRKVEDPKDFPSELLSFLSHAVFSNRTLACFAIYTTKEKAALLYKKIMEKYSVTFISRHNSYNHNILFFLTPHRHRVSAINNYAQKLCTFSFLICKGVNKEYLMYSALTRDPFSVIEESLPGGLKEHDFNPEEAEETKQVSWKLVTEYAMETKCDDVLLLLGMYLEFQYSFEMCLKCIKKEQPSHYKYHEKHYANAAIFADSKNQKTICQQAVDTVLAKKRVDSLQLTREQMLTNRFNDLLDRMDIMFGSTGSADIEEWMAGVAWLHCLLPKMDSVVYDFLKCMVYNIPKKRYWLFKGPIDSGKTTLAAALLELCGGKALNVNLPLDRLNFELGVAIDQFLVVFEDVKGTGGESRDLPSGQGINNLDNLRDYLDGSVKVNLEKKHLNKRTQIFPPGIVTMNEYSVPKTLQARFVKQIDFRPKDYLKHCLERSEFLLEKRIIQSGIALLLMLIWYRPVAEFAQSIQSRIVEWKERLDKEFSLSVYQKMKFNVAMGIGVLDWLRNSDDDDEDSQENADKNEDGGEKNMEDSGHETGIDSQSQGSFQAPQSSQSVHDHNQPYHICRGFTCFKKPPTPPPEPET

[5] = biological target: T2, Rac GTPase-activating protein 1 (Homo sapiens, UniProt Q9H0H5); experiment: blockers of MgcRacGAP-driven Rac1 GTP hydrolysis – biochemical, ADP Hunter fluorescence, primary and confirmatory, confirmation (AID 624330); type: functional
T2 sequence (Q9H0H5 whole entry): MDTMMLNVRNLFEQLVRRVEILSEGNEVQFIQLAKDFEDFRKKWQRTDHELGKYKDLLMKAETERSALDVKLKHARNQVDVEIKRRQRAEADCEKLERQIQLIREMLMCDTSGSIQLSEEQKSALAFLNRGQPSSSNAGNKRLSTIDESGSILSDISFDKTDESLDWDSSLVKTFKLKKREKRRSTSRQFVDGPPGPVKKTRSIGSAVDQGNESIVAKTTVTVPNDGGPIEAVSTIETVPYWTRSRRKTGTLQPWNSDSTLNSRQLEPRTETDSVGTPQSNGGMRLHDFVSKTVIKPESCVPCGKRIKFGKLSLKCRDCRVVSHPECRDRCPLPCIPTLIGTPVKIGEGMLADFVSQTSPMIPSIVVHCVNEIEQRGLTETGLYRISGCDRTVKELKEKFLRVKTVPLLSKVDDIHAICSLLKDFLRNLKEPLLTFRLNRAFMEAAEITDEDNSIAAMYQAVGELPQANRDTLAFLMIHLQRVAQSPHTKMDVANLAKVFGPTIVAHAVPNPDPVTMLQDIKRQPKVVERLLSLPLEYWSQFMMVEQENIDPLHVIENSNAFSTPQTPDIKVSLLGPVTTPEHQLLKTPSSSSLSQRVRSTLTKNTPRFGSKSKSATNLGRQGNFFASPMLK

Cytochrome P450 2C9 = Cytochrome P450 2C9 (Homo sapiens, UniProt P11712)
Cytochrome P450 2C9, sequence (P11712 whole entry): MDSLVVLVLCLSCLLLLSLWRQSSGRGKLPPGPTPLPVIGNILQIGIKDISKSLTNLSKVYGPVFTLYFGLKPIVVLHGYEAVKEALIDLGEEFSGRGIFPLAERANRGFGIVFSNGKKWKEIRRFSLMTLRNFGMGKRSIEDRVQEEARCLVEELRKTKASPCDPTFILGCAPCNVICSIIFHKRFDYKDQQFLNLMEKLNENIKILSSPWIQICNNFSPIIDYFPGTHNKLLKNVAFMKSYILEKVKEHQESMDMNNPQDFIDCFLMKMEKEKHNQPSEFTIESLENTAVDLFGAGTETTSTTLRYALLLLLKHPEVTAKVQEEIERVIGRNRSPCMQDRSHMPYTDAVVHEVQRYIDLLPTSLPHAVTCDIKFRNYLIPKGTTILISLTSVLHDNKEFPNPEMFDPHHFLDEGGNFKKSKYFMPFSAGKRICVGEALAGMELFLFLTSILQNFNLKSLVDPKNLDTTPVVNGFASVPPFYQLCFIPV

[6] = Luminescence Cell-Based Dose Confirmation HTS to Identify Inhibitors of Platelet Dense Granule Release. [Related pubchem assays: 1663 (Primary HTS), 1678 (Summary of Project)]; type: functional
[7] = biological target: Luciferin 4-monooxygenase (Photinus pyralis, UniProt P08659); experiment: inhibition of purified Photinus pyralis luciferase – biochemical, luminescence, dose response (AID 1891)
Luciferin 4-monooxygenase, sequence (P08659 whole entry): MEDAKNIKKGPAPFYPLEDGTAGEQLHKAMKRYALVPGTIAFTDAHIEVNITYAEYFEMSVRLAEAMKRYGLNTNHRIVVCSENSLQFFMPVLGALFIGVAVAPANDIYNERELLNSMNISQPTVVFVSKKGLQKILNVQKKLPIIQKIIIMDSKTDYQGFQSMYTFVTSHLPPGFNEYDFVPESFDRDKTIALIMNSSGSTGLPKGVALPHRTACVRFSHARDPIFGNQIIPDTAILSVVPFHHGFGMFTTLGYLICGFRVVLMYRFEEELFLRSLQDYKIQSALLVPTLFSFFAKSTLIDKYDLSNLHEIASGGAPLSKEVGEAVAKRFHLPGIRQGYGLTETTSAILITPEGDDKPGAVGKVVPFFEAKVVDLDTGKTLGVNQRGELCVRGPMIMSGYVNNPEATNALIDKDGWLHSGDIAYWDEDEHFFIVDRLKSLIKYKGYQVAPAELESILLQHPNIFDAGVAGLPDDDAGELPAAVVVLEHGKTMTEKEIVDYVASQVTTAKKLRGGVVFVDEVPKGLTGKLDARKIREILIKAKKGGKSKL

[8] = biological target: T3, Heat shock factor protein 1 (Mus musculus, UniProt P38532); experiment: decrease of HSF1-responsive luciferase luminescence – cell-based, NIH3T3, dose retest, confirmation (AID 2382); type: functional;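 note: NIH3T3 fibroblasts with HSF1-driven luciferase reporter stressed by proteasome inhibitor MG132; luminescence from HSF1-driven luciferase expression after 8 hours of MG132 stress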
T3 sequence (P38532 whole entry): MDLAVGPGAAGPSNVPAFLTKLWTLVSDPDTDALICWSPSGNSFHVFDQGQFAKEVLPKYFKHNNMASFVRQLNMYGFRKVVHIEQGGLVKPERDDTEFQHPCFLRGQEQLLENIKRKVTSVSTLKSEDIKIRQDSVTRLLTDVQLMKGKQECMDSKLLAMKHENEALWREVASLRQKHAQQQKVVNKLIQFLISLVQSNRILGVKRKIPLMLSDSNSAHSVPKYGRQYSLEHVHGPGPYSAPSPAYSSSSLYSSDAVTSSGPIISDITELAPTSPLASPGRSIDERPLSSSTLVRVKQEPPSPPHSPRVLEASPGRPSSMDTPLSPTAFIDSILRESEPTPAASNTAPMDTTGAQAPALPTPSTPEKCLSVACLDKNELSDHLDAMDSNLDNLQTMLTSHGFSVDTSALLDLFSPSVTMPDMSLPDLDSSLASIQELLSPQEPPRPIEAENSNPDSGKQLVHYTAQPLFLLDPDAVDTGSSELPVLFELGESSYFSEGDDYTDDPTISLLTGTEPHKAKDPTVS

[9] = viability of uninfected HEp-2 cells – cell-based, HTS, cytotoxicity control for RSV inhibitor project, dose response (AID 2410); type: functional; conditions: human respiratory syncytial virus
INS1 = experiment: INS-1E survival protection against cytokine death – cell-based, luminescence, retest, dose response (AID 449756); type: functional; conditions: Rattus norvegicus;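 note: cell death triggered by IL-1 beta plus TNF-alpha plus IFN-gamma mixture; protective hits raise ATP signal compared with cytokine alone wells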
[10] = biological target: T4, Calpain-2 catalytic subunit (Sus scrofa, UniProt P43367); experiment: m-calpain protease blockers, concentration series – biochemical, fluorogenic peptide substrate, dose response (AID 1420); type: functional
T4 sequence (P43367 whole entry): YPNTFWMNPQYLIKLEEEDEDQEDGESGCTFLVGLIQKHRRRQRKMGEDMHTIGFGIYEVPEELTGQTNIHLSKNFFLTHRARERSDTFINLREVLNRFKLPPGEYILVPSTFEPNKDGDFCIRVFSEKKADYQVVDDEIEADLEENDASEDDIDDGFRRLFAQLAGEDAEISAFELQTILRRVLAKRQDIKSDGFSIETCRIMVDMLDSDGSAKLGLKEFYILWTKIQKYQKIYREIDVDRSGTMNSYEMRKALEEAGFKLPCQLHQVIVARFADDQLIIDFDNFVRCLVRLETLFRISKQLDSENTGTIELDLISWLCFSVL

[11] = alpha-synuclein stem-loop luciferase translation blockers – H4 neuroglioma cells, luminescence, confirmation (AID 1988); type: functional, cell-based
[12] = NIH-3T3 fibroblast cytotoxicity, dose response, cytotoxicity control, cell-based, fluorescence, Alamar Blue, secondary assay (AID 2327); type: functional;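 note: NIH-3T3 mouse fibroblasts cultured with fluconazole at 8 µg/mL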
[13] = luciferase reporter signal suppression in cells – H4 neuroglioma cells, luminescence, dose response (AID 1990); type: functional, cell-based
[14] = Trypanosoma cruzi growth suppression in host cells – NIH3T3 host cells, beta-gal luminescence, confirmation (AID 2044); type: functional, cell-based;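 note: intracellular parasites grown in NIH/3T3 mouse fibroblasts as host cells; luminescent beta-galactosidase reporter signal from transgenic T. cruzi replicating inside host cells; inhibitors lower the luminescence signal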
[15] = fluconazole-exposed Candida albicans growth modulators – fluorescence, retest, confirmation (AID 2467); type: functional, cell-based
[16] = Luminescence Cell-Based Dose Response HTS to Identify Inhibitors of 5'UTR Stem-Loop Driven Prion Protein mRNA Translation in H4 Neuroglioblastoma Cells. [Related pubchem assays: 1827 (Project Summary), 1813 (Primary HTS)]; type: functional
[17] = NIH3T3 cell viability loss – ATP luminescence, mouse fibroblasts, counter-screen, dose response (AID 2010); type: functional, cell-based;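 note: cells exposed to compound for about 90 hours before reading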

FAD-linked sulfhydryl oxidase ALR, sequence (P55789 whole entry): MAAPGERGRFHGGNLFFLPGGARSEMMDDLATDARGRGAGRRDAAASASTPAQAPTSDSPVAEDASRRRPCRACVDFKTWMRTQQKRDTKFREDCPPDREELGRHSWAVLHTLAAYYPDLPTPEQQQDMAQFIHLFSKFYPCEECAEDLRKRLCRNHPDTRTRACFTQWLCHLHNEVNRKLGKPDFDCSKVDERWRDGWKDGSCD

## Cc1cc(N)n2ncc(-c3ccccc3)c2n1
[1]
  AC50: 18.9 µM (active)
[2]
  EC50: 0.137 µM (active)

## COc1ccc(CC(=O)Nc2ccccc2N2CCCC2)cc1OC
[1]
  AC50: 12.6 µM (active)

## Cc1ccc(NC(=O)COC(=O)CN2C(=O)NC3(CCCC3)C2=O)cc1S(=O)(=O)N(C)C
[3]
  EC50: > 53 µM (inactive)
[4]
  IC50: > 47.1 µM (inactive)

## CC(C)c1ccc(NC(=O)Cc2c(C(=O)O)n(C)c3ccccc23)cc1
[1]
  AC50: 6.73 µM (active)

## COc1ccc2c(c1OC)C(=O)OC2c1c(O)n(Cc2ccc(F)cc2)c(=O)[nH]c1=O (stereo not given)
Genome polyprotein
  IC50: 69.7 µM (active)

## Clc1ccc(-c2csc(N3CCOCC3)n2)cc1
[3]
  EC50: > 53 µM (inactive)
[4]
  IC50: > 47.1 µM (inactive)

## Cc1c(NC(=O)COC(=O)COc2ccc(Nc3ccccc3)cc2)c(=O)n(-c2ccccc2)n1C
Large T antigen
  IC50: 35.3 µM (active)

## Cc1ccc(C(C2=C(O)CC(C)(C)CC2=O)C2C(=O)CC(C)(C)CC2=O)s1 (stereo not given)
Genome polyprotein
  IC50: 29.4 µM (active)
[5]
  IC50: 62.9 µM (active)

## COc1ccc(CC(=O)N2CCN(c3ccc(C4=NNC(=O)CC4C)cc3)CC2)cc1 (stereo not given)
Cytochrome P450 2C9
  AC50: 8.91 µM (inconclusive)
[6]
  EC50: < 0.088 µM (active)
[1]
  AC50: 20.8 µM (active)
[7]
  EC50: > 112 µM (not active)

## Nc1c(C(=O)O)sc2nc(-c3ccccc3)cc(-c3ccc(Cl)cc3)c12
Genome polyprotein
  IC50: 70.8 µM (active)
[8]
  EC50: > 195 µM (not active)

## COc1ccc(CN2CCN(C(=O)c3cccs3)CC2)c(OC)c1OC
[3]
  EC50: > 53 µM (inactive)
[4]
  IC50: > 47.1 µM (inactive)

## C1CCCCC1.OCCN1CCN(C2Cc3cc(Cl)ccc3Sc3ccc(Cl)cc32)CC1 (stereo not given)
[9]
  CC50: 13.8 µM (active)
INS1
  AC50: 13 µM (active)

## CC(=O)c1ccc(NC(=O)N2CCN(c3ccc(C)cc3)C(C)C2)cc1 (stereo not given)
[1]
  AC50: 3.56 µM (active)

## CC1(C)CC(=O)C(C(C2=C(O)CC(C)(C)CC2=O)c2ccc(O)c([N+](=O)[O-])c2)=C(O)C1
Genome polyprotein
  IC50: 9.49 µM (active)

## Cc1cc(C)cc(-n2ncc3c2CCCC3NC(=O)c2cc(C)n(C)n2)c1 (stereo not given)
[1]
  AC50: 4.51 µM (active)

## CC1(C)Cc2ccccc2-c2c1c(=O)n(Cc1ccccc1)c1nnnn21
[3]
  EC50: > 53 µM (inactive)
[4]
  IC50: > 47.1 µM (inactive)

## Cc1ccc(CNc2ccc(N3CCOCC3)cc2)cc1
Large T antigen
  IC50: 5.62 µM (active)

## O=C(O)CN1C(=O)/C(=C\c2ccccc2OCc2ccc(Cl)cc2)SC1=S
Genome polyprotein
  IC50: 43.3 µM (active)

## CC(C)(C)c1cc(-c2nnc(S)n2-c2ccccc2F)[nH]n1
[1]
  AC50: 2.1 µM (active)

## COc1ccc(NC(=O)NCCCN2CCc3ccccc3C2)cc1
[3]
  EC50: > 53 µM (inactive)
[4]
  IC50: > 47.1 µM (inactive)

## O=[N+]([O-])c1ccc(N2CCN(c3ccc(O)cc3)CC2)cn1
Large T antigen
  IC50: 26.7 µM (active)

## Oc1ccc(N2CCN(C(c3ccncc3)c3nnnn3C3CCCC3)CC2)cc1 (stereo not given)
Large T antigen
  IC50: 5.61 µM (active)

## CCN(CC)c1ccc(NC(=O)c2cccc(C)c2OC)c(C)c1
Large T antigen
  IC50: 32 µM (active)

## COc1ccc(NC(=O)CN(C)C(=O)/C=C/c2ccc(S(=O)(=O)N3CCCCCC3)cc2)cc1
INS1
  AC50: 24.3 µM (active)

## CCc1ccc(NC(=O)Cn2nc(C(=O)O)c3ccccc3c2=O)cc1
[3]
  EC50: > 53 µM (inactive)
[4]
  IC50: > 47.1 µM (inactive)

## CC(C)(C)C(=O)Nc1ccc(C(=O)N/N=C/c2ccccc2OC(=O)c2ccc(Cl)cc2)cc1
INS1
  AC50: 2.83 µM (active)

## COc1cc(/C=N/NC(=O)c2ccccc2O)ccc1OC(=O)CC1SC(=O)NC1=O (stereo not given)
Large T antigen
  IC50: 35.1 µM (active)

## Cc1ccc(N/N=C2\CCS(=O)(=O)c3sccc32)cc1
[10]
  IC50: > 50 µM (not active)
[1]
  AC50: 0.311 µM (active)

## CC(C)[C@H]1C(=O)O[C@H](C(C)C)C(=O)N(C)[C@@H](C(C)C)C(=O)O[C@H](C(C)C)C(=O)N(C)[C@@H](C(C)C)C(=O)O[C@H](C(C)C)C(=O)N1C [ENNIATIN B]
[11]
  EC50: > 120 µM (not active)
[12]
  EC50: 3.22 µM (inconclusive)
[13]
  EC50: 5.62 µM (active)
INS1
  AC50: 2.99 µM (active)
[14]
  EC50: 0.853 µM (active)
[15]
  EC50: 0.374 µM (active)
[16]
  EC50: > 120 µM (not active)
[17]
  EC50: 3.66 µM (active)

Reference: ChEMBL document CHEMBL1201862, “PubChem BioAssay data set” (2004)
